Measured values as given in patent US4473579A, “Antiatherosclerotic tetrasubstituted ureas and thioureas” (American Cyanamid Company, priority 1982, dated 1984).

molecular target: T1, fatty acyl CoA:cholesterol acyl transferase (ACAT) (Rattus norvegicus, UniProt O70536); assay: In vitro inhibition of fatty acyl CoA:cholesterol acyl transferase (ACAT), rat adrenal supernatant; format: biochemical; conditions: test compound final concentration 5.2 g./ml. (so in the source), pH 7.4, 37° C., 10 minutes
T1 construct: Rat adrenals were homogenized in 0.2M monobasic potassium phosphate buffer; from tissue; host or cells: rat adrenals, 1000 x g supernatant containing the microsomal fraction
T1 sequence (O70536 1-545): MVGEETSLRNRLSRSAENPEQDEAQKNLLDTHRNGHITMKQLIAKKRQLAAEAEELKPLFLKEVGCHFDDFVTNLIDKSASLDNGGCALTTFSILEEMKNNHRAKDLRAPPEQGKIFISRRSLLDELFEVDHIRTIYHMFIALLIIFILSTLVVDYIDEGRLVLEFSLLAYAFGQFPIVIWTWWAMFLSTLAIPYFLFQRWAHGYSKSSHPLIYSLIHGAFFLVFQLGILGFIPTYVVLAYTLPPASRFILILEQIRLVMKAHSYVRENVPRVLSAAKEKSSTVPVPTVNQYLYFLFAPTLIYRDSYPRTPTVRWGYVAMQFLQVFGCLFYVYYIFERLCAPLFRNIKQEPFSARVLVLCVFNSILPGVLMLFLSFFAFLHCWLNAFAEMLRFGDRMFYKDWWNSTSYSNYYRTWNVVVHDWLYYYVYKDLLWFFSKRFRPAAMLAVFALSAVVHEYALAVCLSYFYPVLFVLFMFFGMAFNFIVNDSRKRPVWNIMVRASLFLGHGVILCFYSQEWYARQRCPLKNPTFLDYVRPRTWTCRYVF
Experimental: (§1) The compounds of the present invention were assayed for two types of biological activity related to their potential use as antiatherosclerotic agents. Compounds were tested in vitro for their ability to inhibit the enzyme fatty acyl CoA:cholesterol acyl transferase (ACAT) and in vivo for serum hypolipidemic activity as measured by their ability to inhibit lipid absorption in rats. The compounds were tested for their ability to inhibit ACAT according to the following procedure:
Rat adrenals were homogenized in 0.2M monobasic potassium phosphate buffer, pH 7.4, and centrifuged at 1000 times gravity for 15 minutes at 5° C. The supernatant, containing the microsomal fraction, served as the source of the cholesterol-esterifying enzyme, fatty acyl CoA:cholesterol acyl transferase (ACAT). A mixture comprising 50 parts of adrenal supernatant, 10 parts of albumin (BSA) (50 mg./ml.), 3 parts of test compound (final concentration […].) and 500 parts of buffer was preincubated at 37° C. for 10 minutes. After treatment with 20 parts of oleoyl CoA(^14 C-[…]) the mixture was incubated at 37° C. for 10 minutes. A control mixture, omitting the test compound, was prepared and treated in the same manner. The lipids from the incubation mixture were extracted into an organic solvent and separated by thin-layer chromatography. The cholesteryl ester fraction was counted in a scintillation counter. This procedure is a modification of that described by Hashimoto, et al., Life Scie., 12 (Part II), 1-12 (1973).

**Q.** Which “% Inhibition (ACAT)” value does the source give for `CCCCN(Cc1ccccc1)C(=O)N(c1ccccc1)c1ccc(OC(C)C)cc1` [1-Benzyl-1-(n-butyl)-3-(4-isopropoxyphenyl)-3-phenylurea] here?
**A.** The value was 77.8%.

**Q.** With `CCCCN(Cc1ccccc1)C(=O)N(c1ccccc1)c1cccc(Cl)c1` [1-Benzyl-1-(n-butyl)-3-(3-chlorophenyl)-3-phenylurea] as the compound, how does the “% Inhibition (ACAT)” value read?
**A.** Its value is 72.3%.

**Q.** Which “% Inhibition (ACAT)” value does the source give for `CCCCN(Cc1ccccc1)C(=O)N(c1ccccc1)c1cccc2ccccc12` [1-Benzyl-1-(n-butyl)-3-(1-naphthyl)-3-phenylurea] here?
**A.** Its value is 76.3%.

**Q.** `CCCCN(Cc1ccccc1)C(=O)N(c1ccccc1)c1ccc2ccccc2c1` [1-Benzyl-1-(n-butyl)-3-(2-naphthyl)-3-phenylurea] was tested. Which “% Inhibition (ACAT)” value did it give?
**A.** The value was 83.6%.

**Q.** `CCCCN(Cc1ccccc1)C(=O)N(c1ccccc1)c1cccc(OC)c1` [1-Benzyl-1-(n-butyl)-3-(3-methoxyphenyl)-3-phenylurea] was tested. Which “% Inhibition (ACAT)” value did it give?
**A.** The value was 82.5%.

**Q.** `CCCCN(Cc1ccccc1)C(=O)N(c1ccccc1)c1ccccc1` [1-Benzyl-1-(n-butyl)-3,3-diphenylurea] was tested. Which “% Inhibition (ACAT)” value did it give?
**A.** Its value is 75.9%.

**Q.** For `CCCCN(Cc1ccccc1)C(=O)N(CCCC)Cc1ccccc1` [1,3-Dibenzyl-1,3-di-(n-butyl)urea], which “% Inhibition (ACAT)” value is on record?
**A.** The value was 95.4%.

**Q.** How did the “% Inhibition (ACAT)” value turn out when `CCCCN(Cc1ccccc1)C(=O)N(c1cccc(Cl)c1)c1ccc2ccccc2c1` [1-Benzyl-1-(n-butyl)-3-(3-chlorophenyl)-3-(2-naphthyl)urea] was run?
**A.** The value was 82.7%.

**Q.** Which “% Inhibition (ACAT)” value does the source give for `CCCCN(Cc1ccccc1)C(=O)N(Cc1ccccc1)c1ccccc1` [1,3-Dibenzyl-1-(n-butyl)-3-phenylurea] here?
**A.** The value was 81.8%.

**Q.** For `CCCCN(Cc1ccccc1)C(=O)N(c1ccc2ccccc2c1)c1ccc2ccccc2c1` [1-Benzyl-1-(n-butyl)-3,3-di(2-naphthyl)urea], which “% Inhibition (ACAT)” value is on record?
**A.** The value was 93.2%.

**Q.** How did the “% Inhibition (ACAT)” value turn out when `CCCCN(Cc1ccccc1)C(=O)N(c1ccccc1)c1cccc(C)c1` [1-Benzyl-1-(n-butyl)-3-(3-methylphenyl)-3-phenylurea] was run?
**A.** The value was 82.0%.

system: cholesterol absorption; assay: Inhibition of cholesterol absorption in cholesterol/cholic acid fed rats (serum or liver cholesterol lowering); format: in vivo, male Sprague-Dawley rats; conditions: 0.03% of the diet; 1% cholesterol: 0.5% cholic acid diet for 2 weeks; lowering of serum or liver cholesterol relative to control rats
Experimental: as §1
Inhibition of cholesterol absorption was determined by feeding male Sprague-Dawley rats, weighing 150-170 g., a 1% cholesterol: 0.5% cholic acid diet for 2 weeks. The diet was contained compounds being tested at a dose of 0.03% of the diet. Control rats were fed the same diet without any compound. At the end of the test, the rats were sacrificed by decapitation. Blood is collected, centrifuged at 1.5 kg times gravity for 10 minutes at 4° C., and the serum is then analyzed for cholesterol and triglycerides enzymatically by the method of Trinder, P., Analyst, 77, 321 (1952) on a Centrifichem 400 Analyzer. […] The resulting neutral sterols are extracted with petroleum ether and extract analyzed for cholesterol. The effectiveness of the compound in inhibiting cholesterol absorption is measured by the lowering of either serum cholesterol or liver cholesterol relative the values for control rats.

**Q.** For `CCCCN(Cc1ccccc1)C(=O)N(c1ccccc1)c1cccc(OC)c1` [1-Benzyl-1-(n-butyl)-3-(3-methoxyphenyl)-3-phenylurea], which “Result (inhibition of cholesterol absorption)” value is on record?
**A.** Its value is “Active”.
